Entries after “also recorded” stand apart in the source; their conditions may differ.
Columns and labels:
[1] = tested on: mouse skin with hair follicles arrested in telogen; test: Topical administration of SADBE and DPCP to shaved flank of mice (Example 1); type: in vivo, C57BL/6 mice; conditions: for induction of anagen and hair growth: 2% topical, single administration day 0 to shaved left flank, images day 9 and day 16; for hair growth in a mammal without an autoimmune disease: mouse, in vivo
Description: (§1) To measure the effect of SABDE and DPCP (see FIG. 1a) on hair growth, 6 female C57BL/6 mice, 8 weeks old, were shaved on both flanks 4 days before topical administration of the compounds (Day −4). During this period, the mice were visually monitored to confirm absence of hair growth and to confirm the entire shaved area is arrested in the telogen phase as expected from 8 weeks old mice. On the day of administration (day 0), 2% SABDE or 2% DCPC was topically administered to the shaved left flank of 3 mice each using a cotton-tipped applicator (see FIG. 1B). Images were taken on day 9 and day 16 in order to visualize hair growth and inflammation (see FIG. 1c). Skin pigmentation intensity was quantified by ImageJ. The anagen induction index is calculated as the change in skin pigmentation intensity (a marker of anagen) on the treated side relative to (i.e., as a percent of) the untreated side (see FIG. 1d).
(§2) The anagen induction index can be determined by any methods known in the art, including, for example, histological methods (e.g., H&E, other stains, or without stains) and/or other visual morphology methods. (e.g., methods to measure the biological parameters of hair growth. This value is then normalized to the specific experiment (individual mice) and shown as relative anagen induction by skin pigmentation intensity (a marker of anagen) on the treated side as a percent of the baseline untreated side. Analysis of the anagen (or other phases) can be performed by any method known in the art, including, e.g., a tissue biopsy and/or morphological analysis.
(§3) Inflammation can be measured by known methods such as histological grading, visual identification, and quantification of lesions. The number, size, and extent of the cutaneous lesions present (e.g., see blue * in FIG. 3a) can be visualized and quantified using any known method in the art, including, for example, histological methods (e.g., H&E, other stains, or without stains) and/or other visual morphology methods.

[2] = tested on: mouse skin with hair follicles arrested in telogen; test: Topical administration of novel compounds to pre-sensitized mice (Example 2); type: in vivo, C57BL/6 mice; conditions: pre-sensitized with 2% on chest; 2% topical on days 3, 5 and 7; images day 17
Description: In order to compare the effect of SABDE, CF3-SABDE or CC1-SABDE (see FIG. 2a) on hair growth, 3 female C57BL/6 mice, 8 weeks old, were pre-sensitized with 2% of each compound on the chest 4 days before the first treatment and both flanks were shaved (Day 0). On days 3, 5, and 7, 2% of SABDE, CF3-SABDE or CC1-SABDE was topically administered to the shaved left flank of one mouse each using a cotton-tipped applicator. Images were taken on day 17 in order to visualize hair growth and inflammation (see FIGS. 2B and 2C).

[3] = tested on: mouse skin with hair follicles arrested in telogen; test: Comparison of 100 mM SADBE and CF3-SADBE topical treatment (Examples 3 and 5); type: in vivo, C57BL/6 mice; conditions: 100 mM topical; for visible anagen: by day 10; for anagen induction / visible inflammation: by day 14; for hair growth on the treated flank: by day 17
Description: as §1, §2, §3
The effects of a topical treatment dose of SADBE or CF3-SADBE were measured using the methods describe in Example 1. In FIG. 3, the topical treatment dose used was 50 uL of 100 mM SADBE or CF3-SADBE.
The effects on anagen induction and inflammation of topical treatment with CF3-SADBE at 100 mM were measured and visualized using the methods described in Example 1.

[4] = tested on: resting telogen hair follicles; test: Induction of anagen phase by CF3-SADBE, H&E staining of treated skin (Example 4); type: in vivo, mouse; conditions: 100 uL of 100 mM on left flank; right flank untreated
Description: as §1
The effects of a topical treatment dose of CF3-SADBE was measured and visualized using the methods described in Example 1. The gross appearance of the mouse treated with CF3-SADBE was imaged (see FIG. 4a). CF3-SADBE was administered on the left flank at a dose of 100 uL of 100 mM CF3-SADBE (see FIG. 4B). The right flank was left untreated (see FIG. 4C).

[5] = tested on: hair growth in shaved mice; test: Hair growth in animal models after topical delivery of hapten derivatives (general statements); type: in vivo

Structure (SMILES)	induction of anagen and hair growth [1]	hair growth in a mammal without an autoimmune disease [1]	anagen and hair growth [2]	inflammation [2]	visible anagen [3]	anagen induction [3]	visible inflammation [3]	hair growth on the treated flank [3]	hair follicle phase in treated skin (H&E staining) [4]	efficacy as measured by time of anagen induction [5]	inflammation relative to known treatments [5]	hair growth promoting activity ([5]; animal models, after prior shaving)
O=c1c(-c2ccccc2)c1-c1ccccc1 [DPCP, diphenylcyclopropenone]	induction of anagen and hair growth	increased hair growth										
O=c1c(OCCCCCl)c(OCCCCCl)c1=O [CC1-SABDE]			neither produced inflammation nor anagen and hair growth	neither produced inflammation nor anagen and hair growth								
CCCCOc1c(OCCCC)c(=O)c1=O [SADBE]	induction of anagen and hair growth	increased (e.g., promoted) hair growth		inflammation in the SADBE treated flank	does not; also recorded: did not induce visible anagen	induces anagen	substantial inflammation; also recorded: more visible inflammation	Robust hair growth				
O=c1c(OCCCC(F)(F)F)c(OCCCC(F)(F)F)c1=O [CF3-SADBE, squaric acid di(trifluromethyl)propyl ester]			induce anagen and hair growth at least as efficiently as SADBE	less inflammation	induced visible anagen	induces anagen	much less visible inflammation	Robust hair growth	hair follicles in anagen	earlier induction of anagen	less inflammation than known treatments; also recorded: somewhat diminished inflammation	accelerated hair growth relative to known treatments
